Test results taken from patent US11639350B2, “Heteroaryldihydropyrimidine derivatives and methods of treating hepatitis B infections” (Janssen Pharmaceutica NV, priority 2018, dated 2023).
pEC50: −log10 of the molar value. Read-outs that look alike come from different tables or passages of the source.

How the values were obtained:
HBV = HBV inhibitory activity: HBV DNA in the culture medium of HepG2.2.15 cells by q-PCR; format: cell-based; details: HepG2.2.15 cells, 6 days of compound treatment, HBV DNA in culture medium by q-PCR, highest concentration 10 μM, read-out: EC50
How it was run: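 Supernatant HBV DNA quantified by q-PCR after a 6-day compound exposure, with one mid-course medium change, of HepG2.2.15 cells (stably integrated HBV; 40,000 per well, 2% FBS). Eight-point 3-fold series topped at 10 μM for antiviral EC50; separate plates of 5,000 cells per well with 100 μM top give CC50.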

HepG2.2.15 cells = experiment: Cytotoxicity determination in HepG2.2.15 cells (CCK-8); format: cell-based; details: 6 days of compound treatment, CCK-8, highest concentration 100 μM
How it was run: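 CC50 is from CCK-8 absorbance (450 nm, 630 nm reference) after 2.5 h with reagent. Before that, compounds were applied for six days, top concentration 100 μM, eight threefold dilutions, one mid-course medium change, to stably HBV-integrated HepG2.2.15 cells plated at 5,000/well in 2% FBS.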

[1] = Hepatitis B virus, HepG2.2.15, 144 h

`COC(=O)C1=C(C2COC(CO)C2)NC(c2nccs2)=NC1c1cccc(F)c1Cl` (single isomer, unassigned) [Compound 219E, Methyl 4-(2-chloro-3-fluorophenyl)-6-(5-(hydroxymethyl)-tetrahydrofuran-3-yl)-2-(thiazol-2-yl)-1,4-dihydropyrimidine-5-carboxylate] showed a pEC50 (HBV) of 6.87 and a CC50 (HepG2.2.15 cells) of 51400 nM.

With `COC(=O)C1=C(C2C[C@@H]3CN(S(C)(=O)=O)C[C@@H]3C2)NC(c2nccs2)=NC1c1ccc(F)cc1Cl` (single isomer, unassigned) [Compound 176D, Methyl 4-(2-chloro-4-fluorophenyl)-6-((cis)-2-(methylsulfonyl)-octahydrocyclopenta[c]pyrrol-5-yl)-2-(thiazol-2-yl)-1,4-dihydropyrimidine-5-carboxylate] the pEC50 (HBV; [1]) was 6.15 and the CC50 (HepG2.2.15 cells) was 11000 nM.

For `CCCS(=O)(=O)N1CCC(C2=C(C(=O)OC)C(c3ccc(F)cc3Cl)N=C(c3nccs3)N2)C1` (single isomer, unassigned) [Compound 256A, Methyl 4-(2-chloro-4-fluorophenyl)-6-(−1-(propylsulfonyl)pyrrolidin-3-yl)-2-(thiazol-2-yl)-1,4-dihydropyrimidine-5-carboxylate], the pEC50 (HBV) was 7.09 and the CC50 (HepG2.2.15 cells) was greater than 100000 nM.

In the case of `COC(=O)C1=C([C@H]2CC[C@H](NS(C)(=O)=O)CC2)NC(c2ncc(F)cc2F)=NC1c1ccc(F)c(F)c1Cl` (some centres unmarked) [Compound 298B], the pEC50 (HBV) was 7.77 and the CC50 (HepG2.2.15 cells) was 13200 nM.

`CCOC(=O)C1=C(C2CCN(S(=O)(=O)[C@H]3C[C@@](C)(C(=O)O)C3)CC2)NC(c2nccs2)=NC1c1ccc(F)cc1Cl` (stereo partly drawn) [Compound 272B, (cis)-3-((4-(6-(2-Chloro-4-fluorophenyl)-5-(ethoxycarbonyl)-2-(thiazol-2-yl)-3,6-dihydropyrimidin-4-yl)piperidin-1-yl)sulfonyl)-1-methylcyclobutanecarboxylic Acid] gave a pEC50 (HBV) of 7.33 and a CC50 (HepG2.2.15 cells) of 20100 nM.

Work on `COC(=O)C1=C(C2CCN(S(=O)(=O)C3CCC(C)(C(=O)O)CC3)CC2)NC(c2nccs2)=NC1c1ccc(F)c(F)c1Cl` (single isomer, unassigned) [Compound 210B, (cis)-4-((4-(6-(2-chloro-3,4-difluorophenyl)-5-(methoxycarbonyl)-2-(thiazol-2-yl)-3,6-dihydropyrimidin-4-yl)piperidin-1-yl)sulfonyl)-1-methylcyclohexanecarboxylic Acid] yielded a pEC50 (HBV) of 7.36 and a CC50 (HepG2.2.15 cells) of 9700 nM.

`COC(=O)C1=C(C2CCCN(S(C)(=O)=O)C2)NC(c2nccs2)=NC1c1ccc(F)cc1Cl` (single isomer, unassigned) [Compound 33A, Methyl 4-(2-chloro-4-fluorophenyl)-6-(1-(methylsulfonyl)piperidin-3-yl)-2-(thiazol-2-yl)-1,4-dihydropyrimidine-5-carboxylate] was tested, and the pEC50 (HBV) was 6.72 and the CC50 (HepG2.2.15 cells) was 78100 nM.

In the case of `COC(=O)C1=C(C2CCN(S(=O)(=O)C3CC(O)C3)CC2)NC(c2nccs2)=NC1c1ccc(F)cc1Cl` (single isomer, unassigned) [Compound 335B, Methyl 4-(2-chloro-4-fluorophenyl)-6-(1-((3-hydroxycyclobutyl)sulfonyl)piperidin-4-yl)-2-(thiazol-2-yl)-1,4-dihydropyrimidine-5-carboxylate], the pEC50 (HBV) was 7.89 and the CC50 (HepG2.2.15 cells) was 15200 nM.

`COC(=O)C1=C(C2CCNC(=O)C2)NC(c2nccs2)=NC1c1ccc(F)cc1Cl` (single isomer, unassigned) [Compound 3A, Methyl 4-(2-chloro-4-fluorophenyl)-6-(2-oxopiperidin-4-yl)-2-(thiazol-2-yl)-1,4-dihydro-pyrimidine-5-carboxylate] was tested, and the pEC50 (HBV; [1]) was 6.90 and the CC50 (HepG2.2.15 cells) was 35900 nM.

In the case of `CCOC(=O)C1=C([C@@H]2CCC[C@H](C(=O)O)CC2)NC(c2nccs2)=NC1c1ccc(F)c(F)c1Cl` (relative stereo) [Compound 302E, (cis)-4-(−6-(2-Chloro-3,4-difluorophenyl)-5-(ethoxycarbonyl)-2-(thiazol-2-yl)-3,6-dihydropyrimidin-4-1)cycloheptanecarboxylic Acid], the pEC50 (HBV) was 7.60 and the CC50 (HepG2.2.15 cells) was 14600 nM.

Compound `COC(=O)C1=C(C2CCOC2)NC(c2nccs2)=NC1c1cccc(F)c1Cl` (single isomer, unassigned) [Compound 74A, Methyl 4-(2-chloro-3-fluorophenyl)-6-(tetrahydrofuran-3-yl)-2-(thiazol-2-yl)-1,4-dihydropyrimidine-5-carboxylate] has a pEC50 (HBV) of 7.06 and a CC50 (HepG2.2.15 cells) of 33000 nM.

Compound `COC(=O)C1=C([C@H]2CC[C@H](NS(C)(=N)=O)CC2)NC(c2nccs2)=NC1c1ccc(F)cc1Cl` (single isomer, unassigned) [Compound 287D, Methyl 4-(2-chloro-4-fluorophenyl)-6-((trans)-4-(methylsulfonoimidamido)cyclohexyl)-2-(thiazol-2-yl)-1,4-dihydropyrimidine-5-carboxylate] has a pEC50 (HBV) of 7.17 and a CC50 (HepG2.2.15 cells) of 60000 nM.

`COC(=O)C1=C(C2CCN(S(=O)(=O)C3CC(C)(C(=O)O)C3)CC2)NC(c2nccs2)=NC1c1cccc(F)c1Br` (stereo not drawn) [Compound 278C, (trans)-3-((4-(6-(2-bromo-3-fluorophenyl)-5-(methoxycarbonyl)-2-(thiazol-2-yl)-3,6-dihydropyrimidin-4-yl)piperidin-1-yl)sulfonyl)-1-methylcyclobutanecarboxylic Acid] showed a pEC50 (HBV) of 7.35 and a CC50 (HepG2.2.15 cells) of 18900 nM.
